Measured values published in ChEMBL document CHEMBL5104140, “Bicyclic pyrimidine compounds as potent IRAK4 inhibitors” (Bioorg Med Chem Lett, 2022).

Experiments:
Rattus norvegicus [1] = assay: Antiinflammatory activity against collagen-induced arthritis rat model assessed as inhibition of disease progression at 20 mg/kg, bid; format: functional
Rattus norvegicus [2] = assay: Antiinflammatory activity against collagen-induced arthritis rat model assessed as inhibition of disease progression at 5 mg/kg, bid; format: functional
THP-1 = assay: Antiinflammatory activity against human THP-1 cells assessed as inhibition of LPS induced IL-23 production; format: functional, cell-based
Rattus norvegicus [3] = assay: Antiinflammatory activity against collagen-induced arthritis rat model assessed as inhibition of disease progression at 10 mg/kg, bid; format: functional
Rattus norvegicus [4] = assay: Antiinflammatory activity against collagen-induced arthritis rat model assessed as inhibition of disease progression at 30 mg/kg, bid; format: functional
[5] = Antiinflammatory activity against human dendritic cells assessed as inhibition of LPS induced IL-23 production; format: functional, cell-based; details: Dendritic cell
PAD = assay: Induction of PAD activity against human A549 cells; format: toxicity, cell-based
[6] = Clearance in rat at 1 mg/kg, iv; format: ADME, organism-based; details: in vivo
[7] = target: T1, Interleukin-1 receptor-associated kinase 4 (Homo sapiens, UniProt Q9NWZ3); assay: Inhibition of IRAK4 (unknown origin)
T1 sequence (Q9NWZ3 whole entry): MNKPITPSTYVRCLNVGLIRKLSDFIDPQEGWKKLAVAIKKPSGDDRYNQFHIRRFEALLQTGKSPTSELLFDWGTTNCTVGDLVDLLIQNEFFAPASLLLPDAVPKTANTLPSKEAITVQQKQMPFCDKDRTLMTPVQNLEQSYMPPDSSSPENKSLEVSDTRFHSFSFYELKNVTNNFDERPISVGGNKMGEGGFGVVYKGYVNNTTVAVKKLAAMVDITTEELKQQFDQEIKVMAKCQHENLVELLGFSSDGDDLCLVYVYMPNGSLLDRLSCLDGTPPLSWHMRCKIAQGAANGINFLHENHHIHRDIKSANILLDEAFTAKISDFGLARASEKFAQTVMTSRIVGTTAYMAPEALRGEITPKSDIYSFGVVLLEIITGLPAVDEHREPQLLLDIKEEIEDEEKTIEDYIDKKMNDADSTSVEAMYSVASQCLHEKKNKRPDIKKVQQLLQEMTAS

Mus musculus [8] = assay: Antiinflammatory activity against mouse assessed as inhibition of IL-1 beta-stimulated IL-6 expression at 75 mg/kg; format: functional
[9] = Oral bioavailability in rat at 5 mg/kg; format: ADME, organism-based; details: in vivo
Mus musculus [10] = assay: Antiinflammatory activity against mouse assessed as inhibition of IL-1 beta-stimulated IL-6 expression at 5 mg/kg; format: functional
Mus musculus [11] = assay: Antiinflammatory activity against mouse assessed as inhibition of IL-1 beta-stimulated IL-6 expression at 45 mg/kg; format: functional
Mus musculus [12] = assay: Antiinflammatory activity against mouse assessed as inhibition of IL-1 beta-stimulated IL-6 expression at 15 mg/kg; format: functional
[13] = Drug metabolism in rat liver microsomes assessed as oxidative metabolite formation; format: ADME, Microsome

For NC(=O)[C@@H]1[C@H](Nc2nc(Nc3cc(F)cc(N4CCOCC4)c3)nc3ccoc23)[C@H]2C=C[C@@H]1C2, the inhibition in vivo at 20 mg/kg (Rattus norvegicus [1]) was 97%, the inhibition in vivo at 5 mg/kg (Rattus norvegicus [2]) was 30% and the IC50 (THP-1) was 250 nM. The inhibition in vivo at 10 mg/kg (Rattus norvegicus [3]) was 56%, the inhibition in vivo at 30 mg/kg (Rattus norvegicus [4]) was 100% and the IC50 [5] was 140 nM. The IC50 (PAD) was 3200 nM, the clearance [6] was 53 mL/min/kg and the IC50 [7] was 15 nM. For the same compound, the inhibition in vivo at 75 mg/kg (Mus musculus [8]) was 65% and the bioavailability [9] was 38%.
Compound CC(C)n1ncc2ccc(Nc3nc(N[C@H]4[C@@H](C(N)=O)[C@@H]5C=C[C@H]4C5)c4c(ccn4C(F)F)n3)cc21 has an inhibition in vivo at 5 mg/kg (Mus musculus [10]) of 9%, an IC50 (THP-1) of 230 nM and an inhibition in vivo at 30 mg/kg (Rattus norvegicus [4]) of 100%. It also gave an inhibition in vivo at 45 mg/kg (Mus musculus [11]) of 37%, an IC50 [5] of 220 nM and an IC50 (PAD) of 820 nM. The clearance [6] was 6 mL/min/kg, the IC50 [7] was 4.3 nM and the inhibition in vivo at 75 mg/kg (Mus musculus [8]) was 64%. For the same compound, the inhibition in vivo at 15 mg/kg (Mus musculus [12]) was 16% and the bioavailability [9] was 43%.
With NC(=O)[C@@H]1[C@H](Nc2nc(Nc3cccc(C(=O)N4CCCC4)c3)nc3ccsc23)[C@H]2C=C[C@@H]1C2 the IC50 (THP-1) was 90 nM, the IC50 [5] was 40 nM and the IC50 (PAD) was 3800 nM. For the same compound, the clearance [6] was 113 mL/min/kg and the Drug metabolism [13] was “Metabolite_Detected”.
